Assay results reported in patent US11168131B2, “Antibody molecule-drug conjugates and uses thereof” (priority 2015, dated 2021).

Key:
[1] = system: E. coli; assay: Minimal inhibitory concentration (MIC) assay, broth microdilution; type: cell-based, Escherichia coli; conditions: for MIC (mg/ml) Eco 43745: in the presence of PBS
[2] = system: P. aeruginosa; assay: as above; type: cell-based, Pseudomonas aeruginosa; conditions: for MIC (mg/ml) Pae 27853 / MIC (mg/ml) Pae 39324: in the presence of PBS
[3] = system: S. aureus; assay: as above; type: cell-based, Staphylococcus aureus; conditions: in the presence of PBS
[4] = system: P. aeruginosa; assay: MIC in the presence of 50% human serum (hsMIC); type: cell-based, Pseudomonas aeruginosa; conditions: for hsMIC/MIC: Pae 27853, ratio of hsMIC to MIC; for 50% hsMIC (μg/ml) Pae 27853: in the presence of 50% human serum
Experimental: In an embodiment, the MIC is determined in the presence of phosphate-buffered saline (PBS). In an embodiment, the MIC or hsMIC is determined on per ADC basis. In an embodiment, the MIC or hsMIC is determined on per payload or antimicrobial peptide basis.

[5] = system: K. pneumoniae; assay: Minimal inhibitory concentration (MIC) assay, broth microdilution; type: cell-based, Klebsiella pneumoniae; conditions: in the presence of PBS
[6] = system: multiple drug resistant (MDR) strains of P. aeruginosa; assay: Microbial killing assay against multiple drug resistant strains; type: cell-based, Pseudomonas aeruginosa; conditions: assay as in Example 15; for 50% Killing Activity BAA-2108: MDR P. aeruginosa strain BAA-2108; for 50% Killing Activity BAA-2110: MDR P. aeruginosa strain BAA-2110; for 50% Killing Activity BAA-2114: MDR P. aeruginosa strain BAA-2114; for 50% Killing Activity Pae 27853: P. aeruginosa strain 27853
Experimental: The microbial killing assay was performed as follows. Bacterial cells were grown aerobically overnight on agar plates at 37° C. Overnight plates were used to seed 30 ml cultures of growth media in 250 ml vented flasks. Cultures were grown aerobically at 37° C., shaking at 150 rpm. Growth was monitored at A600 […] and bacterial cells were harvested at mid-log growth. Ten ml of culture was pelleted at 4000×G for 10 minutes and washed one time with PBS plus 1% BSA before re-suspending in 2 ml PBS+BSA. […] Cultures were diluted to 1×10^4 cells/ml in PBS plus BSA. Test articles were diluted in PBS+1% BSA and 50 μl per concentration tested was loaded into a 96 well polypropylene microtiter plate. Fifty μl of diluted culture was added to all test wells as well as no compound control wells. Plates were shaken and incubated at 37° C., 90 minutes, static. Ten μl from each assay well was plated onto agar plates and incubated at 37° C. overnight. Percent killing was determined by the CFU for test wells compared to the CFU for no compound control wells.

Substance	MIC (mg/ml) Pae 27853 [2] [mg/mL]	MIC (mg/ml) Pae 39324 [2] [mg/mL]	hsMIC/MIC [4]	50% hsMIC (μg/ml) Pae 27853 [4] [µg/mL]	MIC (mg/ml) Eco 43745 [1] [mg/mL]	other results
(MAL)-(EG3)-GIGKFLKKAKKFGKAFVKILKK [peptide 21]	–	–	–	–	–	MIC μg/ml Eco 25922 [1]: 8 µg/mL
Ceftazadime [reference compound]	1	1	1	1	–	MIC (mg/ml) Sau 29213 [3]: 0.004 mg/mL
GAFGNFLKGVAKKAGLKILSIAQCKLFGTC [peptide 70]	–	–	–	–	–	MIC μg/ml Pae 27853 [2]: 8 µg/mL; MIC μg/ml Eco 25922 [1]: 4 µg/mL
GGG-D-Dab-cyclic(L-Dab-L-Dab-D-Leu-L-Phe-L-Dab-L-Dab-L-Leu) [GGG-Octapeptin]	2	2	1	2	–	MIC (mg/ml) Sau 29213 [3]: >0.128 mg/mL; MIC (mg/ml) Kpn 700603 [5]: >0.128 mg/mL
GGGGIGKFLKKAKKFGKAFVKILKK [Peptide P261]	–	–	–	–	0.004	–
GGGGLRKRLRKFRNKIKEKLKKIGQKIQGLLPKLA [Peptide P271]	–	–	–	–	0.004	–
GGGGLRRLGRKIAHGIKKYGPTILRIIRIAG [Peptide P293]	8	2	–	–	0.004	MIC (mg/ml) Kpn 700603 [5]: 0.004 mg/mL
GGGGRFKRFRKKFKKLFKKLSPVIPLLHLG [Peptide P295]	4	4	0.5	2	–	50% Killing Activity BAA-2108 [6]: 0.6 µg/mL; 50% Killing Activity BAA-2110 [6]: 0.6 µg/mL; 50% Killing Activity BAA-2114 [6]: 0.14 µg/mL; 50% Killing Activity Pae 27853 [6]: 0.3 µg/mL
GGGGSGGGGSGIGKFLKKAKKFGKAFVKILKK [peptide 23]	–	–	–	–	–	MIC μg/ml Eco 25922 [1]: 8 µg/mL
GGGKFFRKLKKSVKKRAKEFFKKPRVIGVSIPF [Peptide P297]	4	2	2	8	0.002	50% Killing Activity BAA-2108 [6]: 0.28 µg/mL; 50% Killing Activity BAA-2110 [6]: 0.28 µg/mL; 50% Killing Activity BAA-2114 [6]: 0.07 µg/mL; 50% Killing Activity Pae 27853 [6]: 0.04 µg/mL
GGGKRFKKFFKKLKNSVKKRAKKFFKKPRVIGVSIPF [Peptide P296]	4	2	0.25	1	0.004	–
GGGLLGDFFRKSKEKIGKEFKRIVQRIKDFLRNLVPRTES [Peptide P265]	–	–	>4	>128	0.008	MIC (mg/ml) Kpn 700603 [5]: >0.128 mg/mL
GGGRGLRRLGRKIAHGVKKYGPTVLRIIKKYG [Peptide P294]	–	–	–	–	0.002	MIC (mg/ml) Kpn 700603 [5]: 0.008 mg/mL
GIGKFLKKAKKFGKAFVKILKK [peptide 109]	–	–	–	–	–	MIC μg/ml Pae 27853 [2]: 8 µg/mL; MIC μg/ml Eco 25922 [1]: 4 µg/mL
GIGKFLKKAKKFGKAFVKILKKGGGGSGGGGS [peptide 24]	–	–	–	–	–	MIC μg/ml Pae 27853 [2]: 8 µg/mL
GLRKRLRKFRNKIKEKLKKIGQKIQGLLPKLA [Peptide 33]	–	–	–	–	–	MIC μg/ml Pae 27853 [2]: 8 µg/mL; MIC μg/ml Eco 25922 [1]: 8 µg/mL
RLGNFFRKAKKKIGRGLKKIGQKIKDFLGNLVPRTES [peptide 128]	–	–	–	–	–	MIC μg/ml Pae 27853 [2]: 8 µg/mL
